According to ChEMBL document CHEMBL1201862, “PubChem BioAssay data set” (2004):
Activity calls are given as the source filed them.

Tests used:
H9c2 = experiment: cells; type: functional, cell-based; conditions: Rattus norvegicus, H9c2, Myocardium;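 note: confirmatory concentration-response retest of ultra-high-throughput screening hits for modulation of myocardial damage; cell death induced by hydrogen peroxide oxidative stress; compound pretreatment for 60 min then peroxide exposure for 2 h; potency is for protecting the cells against peroxide damage rather than for killing them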
[1] = biological target: T1, Replicative DNA helicase DnaB (Mycobacterium tuberculosis, UniProt P9WMR3); experiment: DnaB intein splicing inhibitors, dose response, biochemical, cell-free fluorescence (AID 449749); type: functional
T1 sequence (P9WMR3 whole entry): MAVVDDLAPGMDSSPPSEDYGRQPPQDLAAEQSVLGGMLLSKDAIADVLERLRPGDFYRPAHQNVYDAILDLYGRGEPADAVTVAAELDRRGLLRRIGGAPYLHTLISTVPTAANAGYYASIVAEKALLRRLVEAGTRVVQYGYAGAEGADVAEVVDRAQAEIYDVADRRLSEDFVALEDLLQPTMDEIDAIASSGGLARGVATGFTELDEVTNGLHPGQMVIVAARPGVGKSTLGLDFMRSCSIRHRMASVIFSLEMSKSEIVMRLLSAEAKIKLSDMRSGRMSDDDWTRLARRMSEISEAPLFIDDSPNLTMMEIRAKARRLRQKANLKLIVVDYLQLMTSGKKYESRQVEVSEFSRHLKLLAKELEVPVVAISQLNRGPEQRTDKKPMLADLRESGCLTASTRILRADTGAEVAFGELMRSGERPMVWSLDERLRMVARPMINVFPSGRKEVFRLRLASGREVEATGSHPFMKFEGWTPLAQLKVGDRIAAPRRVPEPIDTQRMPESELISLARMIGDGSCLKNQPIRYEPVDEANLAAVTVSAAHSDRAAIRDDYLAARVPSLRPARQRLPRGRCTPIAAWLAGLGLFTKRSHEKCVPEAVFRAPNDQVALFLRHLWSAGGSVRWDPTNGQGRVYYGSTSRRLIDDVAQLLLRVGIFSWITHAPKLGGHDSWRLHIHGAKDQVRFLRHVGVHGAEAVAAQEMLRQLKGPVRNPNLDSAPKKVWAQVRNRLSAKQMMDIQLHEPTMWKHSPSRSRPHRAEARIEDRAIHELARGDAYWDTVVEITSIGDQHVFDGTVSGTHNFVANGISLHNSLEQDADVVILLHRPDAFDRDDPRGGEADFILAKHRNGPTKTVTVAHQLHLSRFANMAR

[2] = biological target: T2, Polyadenylate-binding protein 1 (Homo sapiens, UniProt P11940); experiment: MLLE binding blockers, Cy5 peptide tracer – biochemical, fluorescence polarization, Cy5-PAM2 peptide, secondary, miRNA deadenylation inhibitor project, dose response (AID 602260); type: functional; conditions: read-out: IC50_Mean
T2 sequence (P11940 whole entry): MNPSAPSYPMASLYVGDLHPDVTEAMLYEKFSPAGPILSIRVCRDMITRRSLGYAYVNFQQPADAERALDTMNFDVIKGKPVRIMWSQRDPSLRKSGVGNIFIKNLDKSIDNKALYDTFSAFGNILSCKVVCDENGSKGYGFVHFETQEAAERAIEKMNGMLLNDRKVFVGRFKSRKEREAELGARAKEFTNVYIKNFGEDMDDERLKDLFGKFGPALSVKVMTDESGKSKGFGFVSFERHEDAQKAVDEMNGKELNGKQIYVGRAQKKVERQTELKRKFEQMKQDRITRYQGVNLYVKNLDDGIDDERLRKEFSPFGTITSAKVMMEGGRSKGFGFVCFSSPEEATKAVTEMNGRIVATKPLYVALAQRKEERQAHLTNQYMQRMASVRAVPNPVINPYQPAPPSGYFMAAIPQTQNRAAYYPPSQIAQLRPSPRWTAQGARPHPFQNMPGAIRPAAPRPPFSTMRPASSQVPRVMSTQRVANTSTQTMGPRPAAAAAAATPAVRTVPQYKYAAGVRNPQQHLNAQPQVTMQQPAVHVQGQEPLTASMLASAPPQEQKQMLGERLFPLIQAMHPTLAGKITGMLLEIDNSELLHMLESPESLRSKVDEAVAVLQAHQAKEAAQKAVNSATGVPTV

Protein RecA = biological target: T3, Protein RecA (Mycobacterium tuberculosis, UniProt P9WHJ3); experiment: Fluorescence Cell-Free Homogeneous Dose Retest to Identify Inhibitors of RecA-Intein Splicing Activity. [Related pubchem assays (depositor defined):AID2097, AID2223, AID489010, AID492950]; type: functional
T3 sequence (P9WHJ3 whole entry): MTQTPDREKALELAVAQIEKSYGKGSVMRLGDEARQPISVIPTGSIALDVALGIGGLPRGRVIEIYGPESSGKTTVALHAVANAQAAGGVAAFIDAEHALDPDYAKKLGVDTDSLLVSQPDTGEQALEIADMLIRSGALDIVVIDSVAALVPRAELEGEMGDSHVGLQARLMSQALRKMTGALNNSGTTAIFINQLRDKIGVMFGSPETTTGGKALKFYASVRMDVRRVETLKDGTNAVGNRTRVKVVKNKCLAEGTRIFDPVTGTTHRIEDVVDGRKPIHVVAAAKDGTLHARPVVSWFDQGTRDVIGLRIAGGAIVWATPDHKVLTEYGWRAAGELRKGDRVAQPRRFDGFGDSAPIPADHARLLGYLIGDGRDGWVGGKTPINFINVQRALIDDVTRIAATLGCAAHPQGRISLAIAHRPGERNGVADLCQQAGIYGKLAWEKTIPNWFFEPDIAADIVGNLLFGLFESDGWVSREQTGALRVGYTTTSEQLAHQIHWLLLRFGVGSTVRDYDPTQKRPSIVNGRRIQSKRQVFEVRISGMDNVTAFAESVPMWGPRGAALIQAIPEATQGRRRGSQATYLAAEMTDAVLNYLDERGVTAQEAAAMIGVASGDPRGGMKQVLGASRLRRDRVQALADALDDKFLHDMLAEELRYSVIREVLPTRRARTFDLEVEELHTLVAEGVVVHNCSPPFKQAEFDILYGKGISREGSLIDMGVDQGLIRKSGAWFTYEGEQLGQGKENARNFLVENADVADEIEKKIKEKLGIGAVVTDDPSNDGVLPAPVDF

[3] = biological target: T4, Ubiquitin-conjugating enzyme E2 N (Homo sapiens, UniProt P61088); type: functional;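 note: Dose-response confirmation in a TR-FRET assay detecting UBC13-driven polyubiquitin chain formation, inhibition measured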
T4 sequence (P61088 whole entry): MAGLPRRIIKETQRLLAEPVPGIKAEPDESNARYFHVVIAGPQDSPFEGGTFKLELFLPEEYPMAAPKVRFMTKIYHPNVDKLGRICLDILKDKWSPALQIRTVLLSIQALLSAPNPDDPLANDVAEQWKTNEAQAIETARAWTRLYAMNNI

[4] = biological target: T2, Polyadenylate-binding protein 1; experiment: MLLE domain peptide-binding blockers, IC50 – biochemical, fluorescence polarization, FITC-PAM2 peptide, dose response (AID 602259); type: functional; conditions: read-out: IC50_Mean
Leucine aminopeptidase = biological target: T5, Leucine aminopeptidase (Plasmodium falciparum 3D7, UniProt Q8IL11); experiment: P. falciparum M17LAP inhibitors, primary screen, biochemical, fluorogenic H-Leu-NHMec substrate, 1536-well (AID 1619); type: functional
T5 sequence (Q8IL11 whole entry): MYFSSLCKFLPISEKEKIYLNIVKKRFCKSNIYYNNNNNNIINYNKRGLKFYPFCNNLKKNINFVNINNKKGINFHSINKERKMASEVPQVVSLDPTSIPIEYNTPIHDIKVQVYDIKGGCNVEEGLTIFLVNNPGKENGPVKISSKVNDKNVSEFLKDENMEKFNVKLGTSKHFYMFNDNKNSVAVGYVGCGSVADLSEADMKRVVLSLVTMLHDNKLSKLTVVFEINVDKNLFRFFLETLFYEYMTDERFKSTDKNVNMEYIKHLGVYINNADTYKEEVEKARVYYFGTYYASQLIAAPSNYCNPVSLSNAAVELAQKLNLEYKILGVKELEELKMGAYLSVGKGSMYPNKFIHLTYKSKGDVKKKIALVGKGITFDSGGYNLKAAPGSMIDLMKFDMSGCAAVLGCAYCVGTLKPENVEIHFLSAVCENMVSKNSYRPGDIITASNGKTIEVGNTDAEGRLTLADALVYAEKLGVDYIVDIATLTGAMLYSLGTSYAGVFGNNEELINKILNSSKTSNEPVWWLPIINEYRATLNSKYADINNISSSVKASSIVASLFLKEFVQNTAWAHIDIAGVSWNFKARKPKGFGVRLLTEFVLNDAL

[5] = biological target: Induced myeloid leukemia cell differentiation protein Mcl-1 (Homo sapiens, UniProt Q07820); type: functional
Chain of Induced myeloid leukemia cell differentiation protein Mcl-1 (Q07820 whole entry): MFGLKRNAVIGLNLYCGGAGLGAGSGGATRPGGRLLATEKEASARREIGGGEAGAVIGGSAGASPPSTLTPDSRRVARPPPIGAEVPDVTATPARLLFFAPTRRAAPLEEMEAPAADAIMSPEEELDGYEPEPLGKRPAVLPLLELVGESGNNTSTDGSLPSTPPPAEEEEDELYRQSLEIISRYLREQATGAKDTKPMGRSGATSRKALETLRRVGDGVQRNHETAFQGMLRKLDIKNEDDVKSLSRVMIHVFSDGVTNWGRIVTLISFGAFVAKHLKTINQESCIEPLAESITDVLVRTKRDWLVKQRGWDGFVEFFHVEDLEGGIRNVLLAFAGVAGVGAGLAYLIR

[6] = OVCAR8 cell viability loss – plate reader, dry powder samples, PAX8 project, dose response (AID 743197); type: functional, cell-based; conditions: OVCAR-8
[7] = OVCAR-3 cell viability loss – plate reader, dry powder samples, PAX8 inhibitor project, dose response (AID 743044); type: functional, cell-based
Paired box protein Pax-8 = Paired box protein Pax-8 (Homo sapiens, UniProt Q06710); experiment: PAX8 transcriptional activity inhibition in RMG-I – RMG-I cells, luciferase, cherry-pick, dose response (AID 687027); type: functional, cell-based;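 note: luciferase reporter driven by Pax8 target thyroperoxidase promoter measured by SteadyGlo luminescence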
Chain of Paired box protein Pax-8 (Q06710 whole entry): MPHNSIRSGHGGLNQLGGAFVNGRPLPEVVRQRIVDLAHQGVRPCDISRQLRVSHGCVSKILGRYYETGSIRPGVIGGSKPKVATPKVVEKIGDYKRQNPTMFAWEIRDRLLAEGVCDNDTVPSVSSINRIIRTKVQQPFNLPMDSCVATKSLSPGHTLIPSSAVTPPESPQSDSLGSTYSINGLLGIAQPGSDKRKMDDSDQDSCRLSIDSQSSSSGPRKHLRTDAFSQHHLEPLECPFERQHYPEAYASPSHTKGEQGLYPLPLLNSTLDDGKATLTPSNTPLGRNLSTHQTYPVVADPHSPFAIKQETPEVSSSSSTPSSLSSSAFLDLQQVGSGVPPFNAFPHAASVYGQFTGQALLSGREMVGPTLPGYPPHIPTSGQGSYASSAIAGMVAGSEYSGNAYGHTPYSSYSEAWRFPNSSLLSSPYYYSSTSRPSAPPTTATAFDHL

Fatty acid synthase [8] = biological target: T6, Fatty acid synthase (Homo sapiens, UniProt P49327); experiment: inhibition of human FAS-TE enzyme activity – biochemical, endpoint fluorescence intensity, uHTS hits, dose response (AID 624327); type: functional;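 note: fluorescence from hydrolysis of an O-methyl fluorescein acyl ester substrate by the enzyme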
T6 sequence (P49327 whole entry): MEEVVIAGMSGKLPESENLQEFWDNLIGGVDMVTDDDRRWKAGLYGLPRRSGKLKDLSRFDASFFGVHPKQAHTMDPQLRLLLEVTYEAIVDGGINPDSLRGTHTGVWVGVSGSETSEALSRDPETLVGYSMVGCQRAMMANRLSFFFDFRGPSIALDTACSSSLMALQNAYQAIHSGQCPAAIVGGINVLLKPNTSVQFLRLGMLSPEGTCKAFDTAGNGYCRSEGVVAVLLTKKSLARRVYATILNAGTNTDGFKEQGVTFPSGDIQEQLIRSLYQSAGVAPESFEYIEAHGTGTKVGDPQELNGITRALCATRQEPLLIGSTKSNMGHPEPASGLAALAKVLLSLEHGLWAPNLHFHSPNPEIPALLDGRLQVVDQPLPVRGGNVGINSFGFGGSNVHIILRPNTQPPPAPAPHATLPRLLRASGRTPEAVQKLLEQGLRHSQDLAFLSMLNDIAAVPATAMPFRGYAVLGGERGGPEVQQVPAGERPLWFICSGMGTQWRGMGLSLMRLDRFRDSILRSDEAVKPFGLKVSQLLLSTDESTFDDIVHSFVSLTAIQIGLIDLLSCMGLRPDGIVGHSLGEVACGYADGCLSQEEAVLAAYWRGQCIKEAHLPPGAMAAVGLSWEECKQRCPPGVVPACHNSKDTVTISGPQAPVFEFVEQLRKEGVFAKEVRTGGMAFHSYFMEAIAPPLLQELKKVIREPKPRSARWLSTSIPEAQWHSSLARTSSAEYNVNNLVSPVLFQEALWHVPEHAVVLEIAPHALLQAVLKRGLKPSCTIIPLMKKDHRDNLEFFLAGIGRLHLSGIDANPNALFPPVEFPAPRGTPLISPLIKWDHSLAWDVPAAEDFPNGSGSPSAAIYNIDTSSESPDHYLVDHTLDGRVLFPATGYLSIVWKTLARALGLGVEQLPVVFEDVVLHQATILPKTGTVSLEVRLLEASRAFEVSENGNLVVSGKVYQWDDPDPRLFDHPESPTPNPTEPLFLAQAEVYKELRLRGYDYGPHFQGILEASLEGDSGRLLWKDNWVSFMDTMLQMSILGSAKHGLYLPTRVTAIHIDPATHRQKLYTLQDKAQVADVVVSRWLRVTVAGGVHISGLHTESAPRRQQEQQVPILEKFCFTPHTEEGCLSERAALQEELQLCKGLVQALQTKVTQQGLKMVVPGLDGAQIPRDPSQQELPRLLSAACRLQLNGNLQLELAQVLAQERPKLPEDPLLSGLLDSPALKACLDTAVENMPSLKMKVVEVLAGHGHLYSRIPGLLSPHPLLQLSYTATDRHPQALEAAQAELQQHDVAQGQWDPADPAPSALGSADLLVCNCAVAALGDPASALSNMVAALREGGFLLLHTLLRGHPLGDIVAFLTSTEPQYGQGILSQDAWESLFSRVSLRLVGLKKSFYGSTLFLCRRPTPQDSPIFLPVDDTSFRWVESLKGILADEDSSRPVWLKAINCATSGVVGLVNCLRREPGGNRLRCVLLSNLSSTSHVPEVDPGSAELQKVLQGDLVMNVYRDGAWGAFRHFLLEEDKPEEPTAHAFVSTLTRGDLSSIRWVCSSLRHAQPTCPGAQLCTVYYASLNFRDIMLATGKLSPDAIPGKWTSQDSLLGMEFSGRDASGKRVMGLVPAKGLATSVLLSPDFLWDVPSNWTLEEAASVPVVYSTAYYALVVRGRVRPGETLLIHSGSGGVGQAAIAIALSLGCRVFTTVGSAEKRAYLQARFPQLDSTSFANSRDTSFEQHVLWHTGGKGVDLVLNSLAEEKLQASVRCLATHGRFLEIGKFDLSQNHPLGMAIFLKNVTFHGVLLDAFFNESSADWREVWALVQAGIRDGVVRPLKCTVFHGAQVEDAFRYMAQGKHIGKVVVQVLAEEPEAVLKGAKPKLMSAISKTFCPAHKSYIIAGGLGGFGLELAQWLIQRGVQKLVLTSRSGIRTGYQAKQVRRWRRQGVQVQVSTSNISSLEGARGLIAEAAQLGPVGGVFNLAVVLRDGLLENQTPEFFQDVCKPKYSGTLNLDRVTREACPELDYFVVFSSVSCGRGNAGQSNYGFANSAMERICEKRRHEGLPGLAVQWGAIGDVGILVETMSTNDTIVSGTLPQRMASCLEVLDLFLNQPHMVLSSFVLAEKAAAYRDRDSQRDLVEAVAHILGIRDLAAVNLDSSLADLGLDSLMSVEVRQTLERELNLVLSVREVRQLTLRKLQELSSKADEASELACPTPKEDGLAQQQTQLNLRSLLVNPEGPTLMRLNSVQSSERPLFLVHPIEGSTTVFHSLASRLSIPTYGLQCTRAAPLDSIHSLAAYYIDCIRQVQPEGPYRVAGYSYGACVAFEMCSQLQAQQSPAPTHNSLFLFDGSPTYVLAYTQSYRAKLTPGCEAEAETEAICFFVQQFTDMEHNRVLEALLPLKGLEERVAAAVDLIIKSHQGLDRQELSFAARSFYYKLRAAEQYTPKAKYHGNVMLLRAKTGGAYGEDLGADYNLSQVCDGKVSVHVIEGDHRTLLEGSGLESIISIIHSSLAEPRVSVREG

Fatty acid synthase [9] = biological target: T6, Fatty acid synthase; experiment: inhibition of human FAS-TE enzyme activity – biochemical, kinetic fluorescence intensity, dose response (AID 624326); type: functional;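 note: rate of fluorescence rise from hydrolysis of a fluorogenic O-methyl fluorescein ester substrate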
[10] = Luminescence Cell-Based Dose Retest to Confirm Inhibitors of Cancer Stem Cells. [Related pubchem assays (depositor defined):AID2717, AID2721]; type: functional; conditions: Homo sapiens
SN12K1 = experiment: cells; type: functional; conditions: Homo sapiens
P388 = experiment: cells; type: functional; conditions: Mus musculus
P388/ADR = experiment: cells; type: functional; conditions: Mus musculus
[11] = HEK-293T cell viability reduction – luminescence, B-cell screen hits, cytotoxicity control for BCR NF-kB inhibitor project, dose response (AID 489021); type: functional, cell-based;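 note: HEK-293T cells carrying an NF-kB luciferase reporter; cells exposed to compound for about 14 hours before viability readout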
[12] = biological target: T7, Mannose-6-phosphate isomerase (Homo sapiens, UniProt P34949); experiment: MPI inhibition at elevated mannose 6-phosphate – biochemical, fluorescence intensity, high mannose 6-phosphate, primary screen (AID 1220)
T7 sequence (P34949 whole entry): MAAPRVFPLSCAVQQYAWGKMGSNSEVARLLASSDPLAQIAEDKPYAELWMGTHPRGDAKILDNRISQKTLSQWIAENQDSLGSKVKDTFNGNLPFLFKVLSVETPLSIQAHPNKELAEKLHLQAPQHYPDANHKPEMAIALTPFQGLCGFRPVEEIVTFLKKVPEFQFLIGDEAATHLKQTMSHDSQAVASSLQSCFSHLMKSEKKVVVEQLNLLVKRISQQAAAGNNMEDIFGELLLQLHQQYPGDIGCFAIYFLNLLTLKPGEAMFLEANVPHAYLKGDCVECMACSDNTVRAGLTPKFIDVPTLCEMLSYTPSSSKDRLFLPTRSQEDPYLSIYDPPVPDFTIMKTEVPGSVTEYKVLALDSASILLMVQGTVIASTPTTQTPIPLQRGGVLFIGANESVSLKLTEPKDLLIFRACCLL

Compound: O=C(Nc1cccc(/C=C/c2ccccn2)c1)c1ccc(-n2cncn2)cc1
- IC50 (H9c2): 38.2 µM (inactive)

Compound: O=C(/C=C\c1cn(-c2ccccc2)nc1-c1ccc2c(c1)OCCO2)N1CCOCC1
- IC50 (H9c2): > 79 µM (inactive)

Compound: CCN=C(S)N=Nc1c(O)[nH]c2ccc([N+](=O)[O-])cc12
- AC50 [1]: > 380 µM (inactive)
- IC50 [2]: > 66 µM (inactive)
- EC50 (Protein RecA): 56.6 µM (active)
- IC50 [3]: > 20 µM (inactive)
- IC50 [4]: > 66 µM (inactive)

Compound: O=C(O)Cn1nnnc1SCC(=O)Nc1ccc(OC(F)(F)F)cc1
- IC50 (Leucine aminopeptidase): 5.22 µM (active)

Compound: Oc1ccc(N2CCN(c3ncnc4sc5c(c34)CCC5)CC2)cc1
- IC50 [5]: 4.31 µM (active)

Compound: C[C@@H]1CN([C@H](C)CO)C(=O)c2cc(NS(=O)(=O)c3ccc(F)cc3)ccc2O[C@@H](C)CCCCO[C@@H]1CN(C)CC1CCCCC1
- AC50 [6]: > 70 µM (inactive)
- AC50 [7]: 44 µM (active)
- AC50 (Paired box protein Pax-8): 13 µM (active)

Compound: CCOc1ccc(N2C(=O)CC(SCCN)C2=O)cc1 (stereo not given)
- IC50 (Leucine aminopeptidase): 23.6 µM (active)

Compound: O=[N+]([O-])c1ccc(Sc2nnc(-c3ccccc3)[nH]2)nc1
- IC50 (Leucine aminopeptidase): 31.5 µM (active)
- IC50 (Fatty acid synthase [8]): 10.9 µM (active)
- IC50 (Fatty acid synthase [9]): 10.6 µM (active)

Compound: COc1cccc(-c2sc3ccccc3c2-c2ccc(OCCN3CCCCC3)cc2)c1
- AC50 [10]: 1.43 µM (active)
- IC50 [3]: > 20 µM (inactive)

Compound: COc1cc(/C=C/C(=O)OCC(=O)N2c3ccccc3NC(=O)C2(C)C)cc(OC)c1OC
- IC50 (H9c2): > 79 µM (inactive)

Compound: COC1=C2C[C@@H](C)C[C@@H](OC)[C@@H](O)[C@H](C)/C=C(\C)[C@@H](OC(N)=O)[C@H](OC)/C=C\C=C(/C)C(=O)NC(=CC1=O)C2=O
- GI50 (SN12K1): 0.11 µM (active)
- GI50 (P388): 0.015 µM (active)
- GI50 (P388/ADR): 0.212 µM (active)

Compound: COc1ccc(-c2noc(N3CCC(C(=O)Nc4ccc(OC)c(OC)c4)CC3)n2)cc1
- IC50 [11]: > 80 µM (inactive)

Compound: COc1cc(OC)cc(C(=O)Nc2ccc(C(=O)Nc3ccccc3OC)cc2)c1
- IC50 (H9c2): > 79 µM (inactive)

Compound: C[C@@H]1CCCCO[C@H](CN(C)C(=O)Nc2ccc(C(F)(F)F)cc2)[C@@H](C)CN([C@@H](C)CO)C(=O)c2cc(NC(=O)Nc3ccc(C(F)(F)F)cc3)ccc2O1
- AC50 [6]: 32.8 µM (active)
- AC50 [7]: 19.6 µM (active)
- AC50 (Paired box protein Pax-8): 2.32 µM (active)

Compound: N#C/C(=C\c1ccncc1)c1csc2ccccc12
- GI50 (SN12K1): 29.2 µM (inactive)
- GI50 (P388): 19.1 µM (inactive)
- GI50 (P388/ADR): 6.49 µM (inactive)

Compound: CNc1c([N+](=O)[O-])ccc2c1=NC1(CCCCC1)[N+]=2[O-]
- IC50 [12]: > 50 µM (not active)

Compound: O=C(COC(=O)c1cc(O)nc(O)n1)Nc1cccc(Cl)c1
- IC50 [3]: > 20 µM (inactive)

Compound: O=C(CCl)NNC1=Nc2ccc(Cl)cc2SC1
- GI50 (SN12K1): 3.45 µM (inactive)
- GI50 (P388): 0.236 µM (active)
- GI50 (P388/ADR): 0.627 µM (active)

Compound: CCCOc1ccc(C(=O)Nc2ccc(N(C)C)cc2)cc1
- IC50 [5]: 3.27 µM (not active)

Compound: C[C@H]1Cn2cnc(C(=O)N[C@@H](Cc3c[nH]c4ccccc34)C(=O)OC(C)(C)C)c2C(=O)N1
- IC50 (H9c2): 18 µM (active)

Compound: CC(C)Oc1ccc(C(CC(=O)O)NC(=O)CSc2nnc[nH]2)cc1 (stereo not given)
- IC50 (Leucine aminopeptidase): 47.4 µM (active)

Compound: Cc1ccc(-c2[nH]c(C(=O)NCC3CCCO3)cc3c4ccccc4nc2-3)cc1 (stereo not given)
- IC50 [11]: > 80 µM (inactive)

Compound: CSc1nc2c(ncn2C2OCC(O)C(O)C2O)c(=O)[nH]1 (stereo not given)
- GI50 (SN12K1): > 100 µM (inactive)
- GI50 (P388): > 100 µM (inactive)
- GI50 (P388/ADR): > 100 µM (inactive)

Compound: O=C(NNC(=O)C12CC3CC(CC(Br)(C3)C1)C2)c1ccccc1F
- IC50 [11]: > 80 µM (inactive)

Compound: CCC(C)Nc1ncnc2c1cnn2Cc1ccc(Cl)cc1 (stereo not given)
- IC50 (H9c2): > 79 µM (inactive)

Compound: COc1ccc(NC(=O)CSc2ncnc3c2sc2ccccc23)c(OC)c1
- IC50 [5]: 10.3 µM (not active)
